Experimental data taken from paper PMC9959048, “Lipidation of Naturally Occurring α-Helical Antimicrobial Peptides as a Promising Strategy for Drug Design” (International Journal of Molecular Sciences, 2023).
In brackets after ≈: the same amount, converted by molar mass. Residues, ends and D or L forms follow the SMILES beside them. *: point of attachment. Decanoyl = CCCCCCCCCC(=O)*

Tests used:
[1] = tested on: S. aureus PCM1650; type: cell-based, Staphylococcus aureus; conditions: Mueller–Hinton broth, inoculum 5 × 10^5 CFU/mL, 24 h, 37 °C, absorbance 600 nm, triplicate
Procedure, shortened: (§1)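 MIC, serial microdilution (CLSI). Bacteria: MHB, 37 °C, 24 h. Fungi: RPMI-1640/MOPS + 2% glucose, 35 °C, 24 h. OD600 read; % growth inhibition vs untreated control (100%) and medium-only blank (0%). n = 3.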

[2] = tested on: S. aureus PCM2054; type: cell-based, Staphylococcus aureus; conditions: Mueller–Hinton broth, inoculum 5 × 10^5 CFU/mL, 24 h, 37 °C, absorbance 600 nm, triplicate
Procedure, shortened: as §1

[3] = tested on: S. epidermidis PCM2118; type: cell-based, Staphylococcus epidermidis; conditions: Mueller–Hinton broth, inoculum 5 × 10^5 CFU/mL, 24 h, 37 °C, absorbance 600 nm, triplicate
Procedure, shortened: as §1

[4] = tested on: S. epidermidis PCM521; type: cell-based, Staphylococcus epidermidis; conditions: Mueller–Hinton broth, inoculum 5 × 10^5 CFU/mL, 24 h, 37 °C, absorbance 600 nm, triplicate
Procedure, shortened: as §1

[5] = tested on: E. coli PCM2057; type: cell-based, Escherichia coli; conditions: Mueller–Hinton broth, inoculum 5 × 10^5 CFU/mL, 24 h, 37 °C, absorbance 600 nm, triplicate
Procedure, shortened: as §1

[6] = tested on: C. albicans PCM2566; type: cell-based, Candida albicans; conditions: RPMI-1640 with MOPS and 2% glucose, inoculum 5 × 10^3 CFU/mL, 24 h, 35 °C, absorbance 600 nm, triplicate
Procedure, shortened: as §1

[7] = tested on: C. glabrata CCM8270; type: cell-based, Candida glabrata; conditions: RPMI-1640 with MOPS and 2% glucose, inoculum 5 × 10^3 CFU/mL, 24 h, 35 °C, absorbance 600 nm, triplicate
Procedure, shortened: as §1

[8] = tested on: C. krusei CCM8271; type: cell-based, Candida krusei; conditions: RPMI-1640 with MOPS and 2% glucose, inoculum 5 × 10^3 CFU/mL, 24 h, 35 °C, absorbance 600 nm, triplicate
Procedure, shortened: as §1

[9] = tested on: C. parapsilosis CCM 8260; type: cell-based, Candida parapsilosis; conditions: RPMI-1640 with MOPS and 2% glucose, inoculum 5 × 10^3 CFU/mL, 24 h, 35 °C, absorbance 600 nm, triplicate
Procedure, shortened: as §1

[10] = tested on: human breast cancer cells (MCF-7 line, ATCC); assay: MTT cytotoxicity assay; type: cell-based; conditions: IC50 against HaCaT divided by IC50 for MCF-7
Description: (§2) The prepared plates were further incubated for 48 h. […] The control cell viability was assumed to be 100%. Three independent experiments were carried out in three repetitions.

[11] = tested on: human prostate cancer cells (PC3 line, ATCC); assay: MTT cytotoxicity assay; type: cell-based; conditions: IC50 against HaCaT divided by IC50 for PC3
Description: as §2

[12] = tested on: POPC liposomes; assay: CD, α-helix content in POPC liposomes; type: physicochemical; conditions: 25 °C, peptide 0.15 mg/mL, 1.3 mM POPC
Description: (§3) Large unilamellar vesicles (LUV) were obtained by extrusion of MLV liposomes through polycarbonate membrane filters with a pore diameter of 100 nm (Whatman International Ltd., Kent, UK) using a mini-extruder (Avanti Polar Lipids, Inc., Alabaster, AL, USA).
(§4) CD experiments were carried out at 25 °C using a Jasco J-815 spectropolarimeter in the wavelength range 185–260 nm. The concentration of the lipopeptides was 0.15 mg/mL. The CD spectra were recorded in water, PBS (pH 7.4), 1.3 mM POPC and 1.3 mM POPG. The results are plotted as the mean molar ellipticity per one amino acid residue (MRME, deg cm^2 dmol^−1) as a function of the wavelength (nm). Additionally, we performed a conformational analysis of the selected compounds in the presence of S. aureus cells. […] The mixtures were then incubated for 2 h before recording the CD spectra.
(§5) The percentage of the α-helical structure was calculated based on the mean molar ellipticity at 222 nm using the formula: fH=θ222−3000/−36000−3000·100% where θ222 corresponds to the value of the mean molar ellipticity at a wavelength of 222 nm.

[13] = tested on: POPG liposomes; assay: CD, α-helix content in POPG liposomes; type: physicochemical; conditions: 25 °C, peptide 0.15 mg/mL, 1.3 mM POPG
Description: as §3, §4, §5

[14] = biological target: POPG LUVs; assay: Isothermal titration calorimetry, binding to POPG LUVs; conditions: ITC, 25 °C
Description: as §3
The thermodynamic parameters of the interactions of the lipopeptides with POPG and POPC liposomes were determined by isothermal titration calorimetry (ITC). Measurements were performed at 25 °C using an AutoITC microcalorimeter (MicroCal Inc., Northampton, MA, USA) with a 1.4491 mL sample and reference cells. The experiment consisted in the titration of a buffered peptide solution with a concentration of 0.05 and/or 0.07 mM with a buffered solution containing POPG or POPC LUVs with a lipid concentration of 1.3 and 1.8 mM (10.02 µL; 29 injections, 2 µL for the first injection only), as it was described previously. The result of the titration was a thermogram showing a series of peaks corresponding to the titration steps. A titration curve was obtained after integration of the peak areas. The obtained isotherms were fitted to the “one set of sites” or “two sets of sites” models available in the ORIGIN 7.0 (MicroCal Inc., Northampton, MA, USA), which made it possible to determine the enthalpy (ΔH), the binding constant (KITC) and the stoichiometry (N) of the interactions between the lipopeptide and the lipids. The following formula was used to calculate the entropy change (ΔS) and the Gibbs free energy (ΔG): ΔG=−RTln(55.5KITC)=ΔH−TΔS where: factor 55.5 is the molar concentration of water, R is the gas constant (1.986 cal·mol^−1·K^−1), and T is the absolute temperature.

[15] = biological target: POPC LUVs; assay: Isothermal titration calorimetry, binding to POPC LUVs; conditions: ITC, 25 °C, 1.3 mM POPC to 0.05 mM C10-LL-I
Description: as §3
The thermodynamic parameters of the interactions of the lipopeptides with POPG and POPC liposomes were determined by isothermal titration calorimetry (ITC). Measurements were performed at 25 °C using an AutoITC microcalorimeter (MicroCal Inc., Northampton, MA, USA) with a 1.4491 mL sample and reference cells. The experiment consisted in the titration of a buffered peptide solution with a concentration of 0.05 and/or 0.07 mM with a buffered solution containing POPG or POPC LUVs with a lipid concentration of 1.3 and 1.8 mM (10.02 µL; 29 injections, 2 µL for the first injection only), as it was described previously. The result of the titration was a thermogram showing a series of peaks corresponding to the titration steps. A titration curve was obtained after integration of the peak areas. The obtained isotherms were fitted to the “one set of sites” or “two sets of sites” models available in the ORIGIN 7.0 (MicroCal Inc., Northampton, MA, USA), which made it possible to determine the enthalpy (ΔH), the binding constant (KITC) and the stoichiometry (N) of the interactions between the lipopeptide and the lipids. […]

CCCCCCCCCC(=O)N[C@H](C(=O)N[C@@H](CC(N)=O)C(=O)N[C@@H](Cc1c[nH]c2ccccc12)C(=O)N[C@@H](CCCCN)C(=O)N[C@@H](CCCCN)C(=O)N[C@H](C(=O)N[C@@H](CC(C)C)C(=O)NCC(=O)N[C@@H](CCCCN)C(=O)N[C@H](C(=O)N[C@H](C(=O)N[C@@H](CCCCN)C(=O)N[C@H](C(=O)N[C@@H](C)C(=O)N[C@@H](CCCCN)C(N)=O)C(C)C)[C@@H](C)CC)[C@@H](C)CC)C(C)C)C(C)C [C10-LL-I] (Decanoyl-VNWKKVLGKIIKVAK-NH2)
MIC, S. aureus PCM1650 [1]: 12.5 µg/mL (≈ 6.66 µM) | MIC, S. aureus PCM2054 [2]: 12.5 µg/mL (≈ 6.66 µM) | MIC, S. epidermidis PCM2118 [3]: 6.25 µg/mL (≈ 3.33 µM) | MIC, S. epidermidis PCM521 [4]: 12.5 µg/mL (≈ 6.66 µM) | MIC, E. coli PCM2057 [5]: 25 µg/mL (≈ 13.3 µM) | MIC, C. albicans PCM2566 [6]: >50 µg/mL | MIC, C. glabrata CCM8270 [7]: 25 µg/mL (≈ 13.3 µM) | MIC, C. krusei CCM8271 [8]: 12.5 µg/mL (≈ 6.66 µM) | MIC, C. parapsilosis CCM 8260 [9]: 6.25 µg/mL (≈ 3.33 µM) | SI MCF-7 [10]: 1.34 | SI PC3 [11]: 0.84 | θ222/θ208, POPC [12]: 0.88 | α-Helix percentage, POPC ([12]; from ellipticity at 222 nm): 40% | θ222/θ208, POPG [13]: 0.98 | α-Helix percentage, POPG ([13]; from ellipticity at 222 nm): 19% | pKITC, POPG ([14]; 0.05 or 0.07 mM peptide titrated with 1.3 or 1.8 mM POPG LUVs, one set of sites model (C10-LL-I: two sets of sites, first line)): 6.02 ± 1.09 | pKITC, POPG ([14]; two sets of sites model, second line): 4.69 ± 0.54 | pKITC, POPC [15]: 4.42 ± 0.24
